The values below come from paper PMC9886550, “Molecular mechanism of topoisomerase poisoning by the peptide antibiotic albicidin” (Nature Catalysis, 2023).

One assay relates to E. coli BW25113. Put plainly: MIC determination (microdilution, M07-A9). It counts as cell-based. The method, then: (§1) MIC values were determined according to the ninth edition of the Approved Standard M07-A9. The test was carried out for six different bacterial strains (E. coli DSM 1116 (Gram-negative), E. coli BW25113 (Gram-negative), B. subtilis DSM 10 (Gram-positive), M. luteus DSM 1790 (Gram-positive), M. phlei DSM 750 (Gram-positive), S. typhimurium TA 100 (Gram-negative). First, 20 µl of glycerol stock of each strain was inoculated in 20 ml LB (Lennox) followed by incubation overnight at 37 °C, 200 r.p.m. The test inoculum was adjusted by the 0.5 McFarland Standard. Within 15 min of preparation, the adjusted inoculum suspension was diluted in MHBII so that each well contained approximately 5 × 10^5 c.f.u. ml^−1 in a final volume of 100 µl. Then, 95 µl of the inoculum was applied per well and 5 µl of the (diluted) albicidins was added. For dilutions, the dry powders were dissolved in dimethylsulfoxide (DMSO) with a concentration of 2.56 mg ml^−1, and the obtained stock solutions were further diluted in DMSO. Next, 5 µl of each antibiotic dilution was applied to the microdilution tray to reach final concentrations of 8 to 0.016 µg ml^−1. One row of each well plate served as a growth control without antibiotic and another row of the microdilution tray served as a sterility control (only MHBII media). The antimicrobial effect of the solvent was tested by adding 5 µl DMSO to several wells. Purity check and cell titre control were performed according to International Standard M07-A9 on Mueller–Hinton II Agar. Both microdilution trays and agar plates were incubated at 37 °C for 20 h.
(In general: In broth dilution the organism is exposed to a series of concentrations in liquid medium.)

The test system of the next assay is M. luteus DSM1790. Description: MIC determination (microdilution, M07-A9). The format is cell-based. The method, then:
as §1

For the next assay, the system named is S. typhimurium TA100. Description: MIC determination (microdilution, M07-A9). It counts as cell-based. The protocol:
as §1

A further assay relates to M. phlei DSM750. Put plainly: MIC determination (microdilution, M07-A9). Conditions: Mycolicibacterium phlei. The format is cell-based. The protocol:
as §1

For a further assay, the system named is E. coli DSM116. Put plainly: MIC determination (microdilution, M07-A9). It counts as cell-based. Conditions: Escherichia coli, DSM116, E. coli DSM116, read-out: MIC. The protocol: as §1
For the next assay, the system named is B. subtilis DSM10. Description: MIC determination (microdilution, M07-A9). It counts as cell-based. Conditions: Bacillus subtilis. The protocol: as §1
Assay [1] relates to selected Gram-negative and Gram-positive microorganisms. Description: MIC activity groups over all tested strains. The format is cell-based. On the set-up: key: a: most potent; b: intermediate; least active. Conditions: MIC panel. The protocol: as §1
The target of the next assay is E. coli Topo IV (Escherichia coli, UniProt P0AFI2+P20083). Put plainly: E. coli Topo IV relaxation assay. It counts as biochemical. Conditions: tested 0.1, 1, 10, 100 µM. The method, then:
E. coli Topo IV relaxation assays were set up in the same way as supercoiling assays with some modifications. The substrate was negatively supercoiled DNA, E. coli Topo IV relaxation buffer (50 mM K-HEPES pH 7.6, 100 mM potassium glutamate, 10 mM magnesium acetate, 10 mM DTT, 1 mM ATP and 0.05 mg ml^−1 BSA) and reactions were incubated for 1 h. Reactions were stopped in the same way as supercoiling assays.
Results were visualized by agarose gel electrophoresis: 1% agarose Tris-acetate-EDTA (TAE) gels were run without ethidium bromide (supercoiling) or with 10 µg ml^−1 ethidium bromide (cleavage) at 8 V cm^−1.
Supplementary Figure 11. Activity of albicidin and Albi-1/2/3 on E. coli topoisomerase IV. a. Plasmid relaxation activity of E. coli topo IV in the presence of albicidin, Albi-1, Albi-2 and Albi-3. First lane: negatively supercoiled pBR322; second lane: innate relaxation activity of E. coli topo IV (12.5 nM); third lane: effect of 20 µM CFX; subsequent lanes: effect of increasing compound concentration (0.1, 1, 10, 100 […]
higher concentration. b. Cleavage activity of E. coli topo IV in the presence of albicidin, Albi-1, Albi-2 and Albi-3. First lane: negatively supercoiled pBR322; second lane: innate cleavage activity of E. coli topo IV (15 nM); third lane: effect of 20 µM CFX; subsequent lanes: effect of increasing compound concentration (0.1, 1, 10, 100 µM). […]
concentration. All experiments were carried out in triplicates and representative gels […]
(1 picture or pasted object on this page, not shown here)

The mark [2] stands for this setting: E. coli BW25113, second value in cell (biological replicate).
Where [3] appears, read: Escherichia coli, BW25113, E. coli strain not named, read-out: MIC for E. coli.
Where [4] appears, read: Escherichia coli, E. coli BW25113, first value in cell (biological replicate), read-out: MIC.
[5] abbreviates: Micrococcus luteus, first value in cell (biological replicate), read-out: MIC.
Where [6] appears, read: second value in cell (biological replicate).
Where [7] appears, read: Salmonella enterica, first value in cell (biological replicate), read-out: MIC.
[8] abbreviates: first value in cell (biological replicate).

The structures appear in SMILES notation. Converted amounts (≈) assume the structure as drawn. Like-named read-outs stand apart in the source and are kept apart here. Bounds are passed on as bounds.

Sequence of E. coli Topo IV (P0AFI2 whole entry): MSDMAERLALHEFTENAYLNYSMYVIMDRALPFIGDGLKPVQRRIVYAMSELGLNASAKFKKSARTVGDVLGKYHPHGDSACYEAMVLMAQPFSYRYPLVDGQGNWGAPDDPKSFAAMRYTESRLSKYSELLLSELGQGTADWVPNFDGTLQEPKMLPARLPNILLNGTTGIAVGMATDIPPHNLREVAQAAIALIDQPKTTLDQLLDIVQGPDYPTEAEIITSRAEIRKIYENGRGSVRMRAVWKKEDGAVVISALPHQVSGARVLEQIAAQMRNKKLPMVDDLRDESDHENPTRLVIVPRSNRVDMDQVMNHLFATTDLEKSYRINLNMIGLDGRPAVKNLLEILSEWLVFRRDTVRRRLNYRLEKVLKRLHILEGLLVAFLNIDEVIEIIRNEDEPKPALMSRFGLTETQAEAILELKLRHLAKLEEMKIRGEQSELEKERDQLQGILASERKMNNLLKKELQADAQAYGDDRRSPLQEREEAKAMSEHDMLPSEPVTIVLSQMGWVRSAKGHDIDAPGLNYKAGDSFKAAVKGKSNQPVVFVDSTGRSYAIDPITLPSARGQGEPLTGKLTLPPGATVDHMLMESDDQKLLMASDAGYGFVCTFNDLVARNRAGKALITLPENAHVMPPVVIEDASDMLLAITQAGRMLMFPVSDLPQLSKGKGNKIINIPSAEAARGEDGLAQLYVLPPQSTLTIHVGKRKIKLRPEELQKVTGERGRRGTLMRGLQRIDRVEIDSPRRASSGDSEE
Sequence of E. coli Topo IV (P20083 whole entry): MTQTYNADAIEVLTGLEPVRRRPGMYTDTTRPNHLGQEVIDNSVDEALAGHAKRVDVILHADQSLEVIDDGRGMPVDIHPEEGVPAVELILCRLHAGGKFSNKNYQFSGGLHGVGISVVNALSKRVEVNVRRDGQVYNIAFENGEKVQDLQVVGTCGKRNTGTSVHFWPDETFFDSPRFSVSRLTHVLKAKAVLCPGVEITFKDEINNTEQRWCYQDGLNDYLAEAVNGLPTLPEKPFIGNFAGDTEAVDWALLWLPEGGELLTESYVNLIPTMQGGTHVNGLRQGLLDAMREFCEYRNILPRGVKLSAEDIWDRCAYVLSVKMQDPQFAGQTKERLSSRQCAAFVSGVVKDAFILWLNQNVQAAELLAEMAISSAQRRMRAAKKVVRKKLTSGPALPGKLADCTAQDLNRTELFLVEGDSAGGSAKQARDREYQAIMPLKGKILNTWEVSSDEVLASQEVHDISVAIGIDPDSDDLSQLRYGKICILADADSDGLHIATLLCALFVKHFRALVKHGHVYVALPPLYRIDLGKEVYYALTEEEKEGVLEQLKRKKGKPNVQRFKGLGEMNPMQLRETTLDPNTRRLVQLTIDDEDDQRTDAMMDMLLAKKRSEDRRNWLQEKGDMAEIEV

On to `CC(C)Oc1c(NC(=O)c2ccc(NC(=O)[C@H](Cc3c[nH]nn3)NC(=O)c3ccc(NC(=O)c4ccc(C#N)cc4)cn3)cn2)ccc(C(=O)Nc2ccc(C(=O)O)cc2)c1O` [Albi-1], for which the MIC (as a rule, the least concentration at which growth counts as inhibited) was <0.016 <0.016 µg ml^−1 with E. coli BW25113 (setting [2]); not above 0.016 mg/L in the assay on E. coli BW25113 (setting [3]); less than 0.016 mg/L with E. coli BW25113 (setting [4]); less than 0.016 mg/L in the assay on M. luteus DSM1790 (setting [5]); <0.016 <0.016 µg ml^−1 against M. luteus DSM1790 (setting [6]); less than 0.016 mg/L in the assay on S. typhimurium TA100 (setting [7]). The MIC against S. typhimurium TA100 (setting [6]) is <0.016 <0.016 µg ml^−1; against M. phlei DSM750 (setting [8]), 0.25 mg/L (≈ 0.298 µM); against M. phlei DSM750 (setting [6]), 0.5 mg/L (≈ 0.597 µM); with E. coli DSM116 (setting [8]), 0.031 mg/L (≈ 0.037 µM); in the assay on E. coli DSM116 (setting [6]), 0.031 mg/L (≈ 0.037 µM); against B. subtilis DSM10 (setting [8]) it was 0.031 mg/L (≈ 0.037 µM). Besides, in the assay on B. subtilis DSM10 (setting [6]), 0.063 mg/L (≈ 0.0752 µM) was the least that counted as inhibitory (MIC). For the same compound, in assay [1], the “activity group (superscript letter)” value is “Albi-1^a”. Further, the “concentration required for full inhibition of Topo IV relaxation activity” value on E. coli Topo IV was 10 µM.

With `COc1c(NC(=O)c2ccc(NC(=O)c3ccc(NC(=O)[C@H](Cc4c[nH]nn4)NC(=O)c4ccc(NC(=O)c5ccc6cc(O)ccc6c5)cc4)cn3)c(OCCN)c2O)ccc(C(=O)O)c1O` [Albi-2], the MIC was 4.0 mg/L (≈ 4.32 µM) against E. coli BW25113 (setting [2]); 4 mg/L (≈ 4.32 µM) in the assay on E. coli BW25113 (setting [3]); 4 mg/L (≈ 4.32 µM) in the assay on E. coli BW25113 (setting [4]); more than 8 mg/L in the assay on M. luteus DSM1790 (setting [5]); >8.0 >8.0 µg ml^−1 in the assay on M. luteus DSM1790 (setting [6]); 0.5 mg/L (≈ 0.541 µM) in the assay with S. typhimurium TA100 (setting [7]). For the same compound, the MIC is 0.5 mg/L (≈ 0.541 µM) in the assay with S. typhimurium TA100 (setting [6]); more than 8 mg/L against M. phlei DSM750 (setting [8]); more than 8 mg/L against M. phlei DSM750 (setting [6]); 2 mg/L (≈ 2.16 µM) with E. coli DSM116 (setting [8]); 4 mg/L (≈ 4.32 µM) in the assay with E. coli DSM116 (setting [6]); more than 8 mg/L against B. subtilis DSM10 (setting [8]). Moreover, the minimum inhibitory concentration (MIC) in the assay on B. subtilis DSM10 (setting [6]) was more than 8 mg/L. Moreover, the “increase in MIC for E. coli compared with the parent compound” value in the assay with E. coli BW25113 (vs albicidin) is reported as 60 fold. In assay [1], the “activity group (superscript letter)” value is given as “Albi-2^b”. For the same compound, the “concentration required for full inhibition of Topo IV relaxation activity” value at E. coli Topo IV is given as 100 µM.

For the compound `COc1c(NC(=O)c2ccc(NC(=O)c3ccc(NC(=O)[C@H](Cc4c[nH]nn4)NC(=O)c4ccc(NC(=O)c5ccc6nc(C)ccc6c5)cc4)cn3)c(OC)c2O)ccc(C(=O)O)c1O` [Albi-3], the MIC against E. coli BW25113 (setting [2]) was <0.016 <0.016 µg ml^−1; in the assay with E. coli BW25113 (setting [3]) it was less than 0.016 mg/L; with E. coli BW25113 (setting [4]) it was less than 0.016 mg/L; in the assay with M. luteus DSM1790 (setting [5]), 0.063 mg/L (≈ 0.0704 µM); against M. luteus DSM1790 (setting [6]), 0.063 mg/L (≈ 0.0704 µM); in the assay with S. typhimurium TA100 (setting [7]) it was less than 0.016 mg/L. Also, the MIC is <0.016 <0.016 µg ml^−1 in the assay on S. typhimurium TA100 (setting [6]); 0.5 mg/L (≈ 0.559 µM) with M. phlei DSM750 (setting [8]); 1 mg/L (≈ 1.12 µM) in the assay on M. phlei DSM750 (setting [6]); less than 0.016 mg/L in the assay with E. coli DSM116 (setting [8]); less than 0.016 mg/L in the assay on E. coli DSM116 (setting [6]); 0.063 mg/L (≈ 0.0704 µM) against B. subtilis DSM10 (setting [8]). Besides, 0.125 mg/L (≈ 0.14 µM) was the least that counted as inhibitory in the assay on B. subtilis DSM10 (setting [6]) (MIC). Also, the “concentration required for full inhibition of Topo IV relaxation activity” value at E. coli Topo IV turned out to be 10 µM.

Take `COc1c(NC(=O)c2ccc(NC(=O)c3ccc(NC(=O)[C@H](CC#N)NC(=O)c4ccc(NC(=O)/C(C)=C/c5ccc(O)cc5)cc4)cc3)c(OC)c2O)ccc(C(=O)O)c1O` [Albicidin]: the MIC in the assay on E. coli BW25113 (setting [2]) was 0.063 mg/L (≈ 0.0747 µM); in the assay on E. coli BW25113 (setting [4]) it was 0.063 mg/L (≈ 0.0747 µM); in the assay on M. luteus DSM1790 (setting [5]), 1 mg/L (≈ 1.19 µM); against M. luteus DSM1790 (setting [6]) it was 1.0 mg/L (≈ 1.19 µM); in the assay on S. typhimurium TA100 (setting [7]), 0.063 mg/L (≈ 0.0747 µM); with M. phlei DSM750 (setting [8]) it was 2 mg/L (≈ 2.37 µM). In addition, the MIC was 2 mg/L (≈ 2.37 µM) against M. phlei DSM750 (setting [6]); 0.063 mg/L (≈ 0.0747 µM) in the assay on E. coli DSM116 (setting [8]); 0.063 mg/L (≈ 0.0747 µM) with E. coli DSM116 (setting [6]); less than 0.25 mg/L in the assay on B. subtilis DSM10 (setting [8]); 0.25 mg/L (≈ 0.297 µM) against B. subtilis DSM10 (setting [6]). In addition, the “activity group (superscript letter)” value in assay [1] was “Albicidin^a”. Also, the “concentration required for full inhibition of Topo IV relaxation activity” value at E. coli Topo IV worked out at 100 µM.
